Key:
[1] = test system: A549; test: Antiproliferative activity against human A549 cells after 72 hrs by MTT assay; assay type: functional, cell-based; settings: A549, 72 h
[2] = test system: L929; test: Antiproliferative activity against mouse L929 cells after 72 hrs by MTT assay; assay type: cell-based; settings: L929, 72 h
[3] = test system: SGC-7901; test: Antiproliferative activity against human SGC7901 cells after 72 hrs by MTT assay; assay type: functional, cell-based; settings: SGC-7901, 72 h
[4] = test system: HT-1080; test: Antiproliferative activity against human HT1080 cells after 72 hrs by MTT assay; assay type: functional, cell-based; settings: HT-1080, 72 h
[5] = Selectivity index, ratio of IC50 for mouse L929 cells to IC50 for human HT1080 cells; assay type: toxicity; settings: L929 cells versus HT1080 cells, read-out: Ratio IC50
[6] = (§1) Inhibition of porcine tubulin polymerization preincubated for 1 min and measured for 82 mins by fluorescence assay; set-up: species or system Sus scrofa
[7] = species: Sus scrofa; test: as §1
[8] = Selectivity index, ratio of IC50 for mouse L929 cells to IC50 for human A549 cells; assay type: toxicity; settings: L929 cells versus A549 cells, read-out: Ratio IC50
[9] = Selectivity index, ratio of IC50 for mouse L929 cells to IC50 for human SGC7901 cells; assay type: toxicity; settings: L929 cells versus SGC7901 cells, read-out: Ratio IC50

Row | Structure (SMILES) | IC50 [1] [nM] | IC50 [3] [nM] | IC50 [4] [nM] | IC50 [6] [nM] | inhibition [7] | IC50 [2] [nM] | selectivity ratio [5] | selectivity ratio [8] | selectivity ratio [9]
1 | COc1cc(C(=O)c2nc(-c3ccc(C)cc3)n[nH]2)cc(OC)c1OC | 1070 | 380 | 650 | 7710 | Dose-dependent effect | 42600 | 65.5 | 39.8 | 112
2 | COc1cc2c(c(OC)c1OC)-c1ccc(OC)c(=O)cc1[C@@H](NC(C)=O)CC2 [COLCHICINE] | 137 | 134 | 42 |  |  | 1010 | 24 | 7.4 | 7.5
3 | COc1cc(C(=O)c2csc(-c3ccccc3)n2)cc(OC)c1OC |  |  | 150 |  |  |  |  |  | 
4 | COc1ccc(/C=C\c2cc(OC)c(OC)c(OC)c2)cc1O [COMBRETASTATIN A4] | 16 | 12 |  |  |  | 820 |  |  | 

The next lines start with results.

Row | IC50 [1] [nM] | IC50 [3] [nM] | IC50 [4] [nM] | IC50 [6] [nM] | inhibition [7] | Structure (SMILES) | IC50 [2] [nM] | selectivity ratio [5] | selectivity ratio [8] | selectivity ratio [9]
5 | 15300 | 6770 | > 100000 |  |  | COc1cc(C(=O)c2nnc(-c3ccc(C)cc3)o2)cc(OC)c1OC |  |  |  | 
6 | 35300 | > 100000 | > 100000 | > 100000 |  | COc1cc(C(=O)c2nnc(-c3ccc(C)cc3)s2)cc(OC)c1OC |  |  |  | 

Reference: ChEMBL document CHEMBL4265947, “Conformation impacts on the bioactivities of SMART analogues” (Eur J Med Chem, 2018)
